Measured values: patent US9814720B2, “Compositions and methods of inhibiting IL-17 expression of neutrophils” (priority 2014, dated 2017)

Legend:
p-STAT3 = assay: STAT3 phosphorylation in IL-6/23-stimulated murine bone marrow neutrophils (flow cytometry); type: cell-based, C57BL/6 mice; conditions: inhibitor 20 μM, 1 h IL-6+IL-23, FIG. 4C
Text: Total bone marrow-derived cells were isolated from mouse femurs and tibias by flushing with RPMI and an 18-gauge needle. Erythrocytes were lysed with 1× lysis buffer (eBioscience), and bone marrow cells were separated on a Percoll (Fisher) gradient by density centrifugation (52%, 69%, and 78%). Cells at the 69-78% interface were harvested, and neutrophil purity (>98%) confirmed by flow cytometry and Wright-Giemsa staining. Murine or human neutrophils were suspended at a density of 10^6 cells/ml and incubated with […] of recombinant mouse or human IL-6 and 2 μg/ml IL-23 in RPMI, and the cells were maintained for 1-3 h at 37° C. in 5% CO2. Various inhibitors were used for assessing STAT3 activation. […] For the determination of RORγt-dependent signaling, SR1001 (20 μM; Sigma) was used, which inhibits RORγt binding to the IL-17 promoter site. All inhibitors were added to neutrophils 2 h prior to recombinant IL-6 and IL-23 stimulation. Corneas were dissected and incubated for 1 h at 37° C. in collaganese (80 U/ml) (C0130; Sigma-Aldrich), and washed in FACS buffer (PBS+1% FBS+0.5% Sodium azide). Ten corneas were pooled and analyzed by intracellular flow cytometry. Conversely, bone marrow cells or neutrophils were collected as described above and washed in FACS buffer. […] Cells were analyzed using a C6 Accuri flow cytometer (BD). […]

IL-17A = IL-17A protein and Il17a gene expression in IL-6/23-stimulated human neutrophils; type: cell-based
Experimental: Neutrophils were isolated from peripheral blood of healthy donors. Peripheral blood was incubated in 3% Dextran, and neutrophils isolated by Ficoll gradient centrifugation (Fisher Scientific), with neutrophil purity determined by staining with Wright-Giemsa.
IL-17A protein production was quantified by 2-site ELISA, according to the manufacturer's directions (R&D Biosciences).
Murine or human neutrophils were suspended at a density of 10^6 cells/ml and incubated with […] of recombinant mouse or human IL-6 and 2 μg/ml IL-23 in RPMI, and the cells were maintained for 1-3 h at 37° C. in 5% CO2. Various inhibitors were used for assessing STAT3 activation. For STAT3, neutrophils were treated with either the STAT3-SH2 inhibitor, Stattic (20 μM) obtained from Tocris, or the JAK-1, 2 inhibitor, INC424, (aka Ruxolitinib; 20 μM (Selleck BioChem)). For the determination of RORγt-dependent signaling, SR1001 (20 μM; Sigma) was used, which inhibits RORγt binding to the IL-17 promoter site. All inhibitors were added to neutrophils 2 h prior to recombinant IL-6 and IL-23 stimulation.
Neutrophil and corneal cell RNA was extracted using the RNeasy mini kit according to the manufacturer's directions (Qiagen, Valencia, Calif.). […]
The SYBR green system (Applied Biosystems, Carlsbad, Calif.) was utilized for quantitative PCR (qPCR) using ABI Biosystems. […]

A. fumigatus hyphae = assay: In vitro fungal killing assay (hyphal coincubation) with human neutrophils; type: cell-based, Aspergillus fumigatus; conditions: IL-6/23-stimulated, inhibitor 20 μM, FIG. 6F
Text: Aspergillus strains—For cornea infections and in vitro fungal killing assays, an RFP expressing strain of A. fumigatus (Af-dsRed) was used. This strain is gpdA promoter driven to constitutively express monomeric dsRed. For subcutaneous “priming” injections, heat-killed, swollen conidia Aspergillus fumigatus strain Af-BP was used. For the Aspergillus hyphal extract used in ROS assay, A. fumigatus strain Af-BP hyphae were pulverized in liquid nitrogen, filtered through a 30 μm pre-separation filter (Miltenyi Biotec) and protein measured by the BCA method (Pierce). Aspergillus hyphal extracts (AspHE) were stored at −20° C. and used at a final concentration of 1 mg/ml.
A hyphal coincubation assay was used to study the ability of murine and human neutrophils to inhibit A. fumigatus hyphal growth as described. Briefly, 12,500 A. fumigatus dsRed expressing conidia (strain Af-dsRed) per 200 μl Sabouraud dextrose media were added to wells of black-walled 96 well plates with an optically clear bottom (CoStar 3720). After 6 h, the conidia had germinated and the hyphae became adherent to the wells, at which time the medium was removed.
Murine and human neutrophils were incubated with p-STAT3 (20 μM Stattic or 20 μM INC424) or RORγt inhibitors (20 μM SR1001) for 2 h. Then the cells were stimulated with […] of rIL-6 and 2 μg/ml of rIL-23 for 3 h, washed, and 2×10^5 bone marrow-derived murine neutrophils or 10^5 human peripheral blood neutrophils, with or without recombinant IL-17A, were added to each well with growing hyphae. RPMI media was used as positive control (unimpaired growth), and PBS was used as a negative control (no growth (data not shown)). After 16 h the wells were washed with PBS and the dsRed fungal mass was quantified in a 96-well fluorometer at 550/600 nm excitation/emission filter (Synergy HT, Biotek).

For `O=[N+]([O-])c1ccc2c(c1)S(=O)(=O)C=C2` [Stattic], the “p-STAT3 in IL-6/23 stimulated neutrophils” value (p-STAT3) was “completely inhibited”, the IL-17A protein (IL-17A; FIG. 5D) was “ablated” and the Il17a gene expression (IL-17A; FIG. 5E) was “ablated”. For the same compound, the fluorescent fungal mass (A. fumigatus hyphae; plus rhIL-17A) was “decreased fungal mass” and the fluorescent fungal mass (A. fumigatus hyphae; without rhIL-17A) was “no increase in ROS (FIG. 6E) or decrease in fluorescent fungal mass”.
